Laboratory results reported in patent US20230303631A1, “METHOD FOR INDUCING IMMUNITY TO SARS-CoV-2” (RIKEN, priority 2020, published 2023).
Where no end group is shown, it is not given here.

Tests used:
[1] = test system: CD8 single-positive T cells; experiment: Intracellular cytokine staining (IFN-γ, TNF-α) after restimulation with individual 15mer peptides; format: cell-based, human; details: for INF-γ production by CD8 single-positive T cells / TNF-α production by CD8 single-positive T cells: PBMCs of 4 healthy volunteers with HLA-A2402, cultured with 15mer mixture (each 10 μg/ml) and IL-2, restimulated with individual 15mer for 16 hours, FIG. 3
Protocol: Culture was carried out for 21 days in presence of IL-2 and a peptide and stimulation with a peptide was carried out in the presence of brefeldin and monensin in the same manner as in Example 1, and then, INF-γ production was examined. More specifically, to PBMCs of 4 healthy volunteers (HV) with HLA-A2402, a mixture of 15mer peptides was added such that the concentration of each peptide became 10 μg/ml. The PBMCs were cultured in the presence of IL-2. As a result, T cells having a binding affinity to a peptide in contact with them survive. Autogenous PBMCs were pulsed with a mixture of 15mer peptides every week, irradiated with 40 Gy and added to the above culture as a feeder. On Day 14 and 21, the mixture of 15mer peptides was further added. Thereafter, the culture obtained was pulsed with individual 15mer peptides and cultured for 16 hours in the presence of brefeldin and monensin to induce INF-γ production. Intracellular cytokine staining (anti-IFN-g-APC, anti-TNF-α-PE) were performed and peptide-specific cytokine producing CD8T cells were analyzed.

[2] = test system: A24-C1R cells
[3] = test system: CD8 single-positive T cells; details: PBMCs of healthy donors HD1 to HD5, peptide 10 μM, 21 days with IL-2, then 16 hours with peptide, brefeldin A and monensin; FIG. 1

| Sequence | INF-γ production by CD8 single-positive T cells [1] | TNF-α production by CD8 single-positive T cells [1] | ratio of INF-γ-positive, TNF-α-positive CD8T cells (stimulation of T cells) ([1]; comparison among the 15mer peptides, FIG. 4) | antigen-specific cytotoxic action of CTLs on peptide-pulsed A24-C1R cells [2] | induction of IFN-γ production in CD8 single-positive T cells (cytotoxic T cells) [3] |
| --- | --- | --- | --- | --- | --- |
| QYIKWPWYIWLGFIA [15mer-3] | increased | increased | stimulated T cells most satisfactorily |  |  |
| QYIKWPWYI [pep #4, QYIKWPWYI] |  |  |  | exhibited antigen-specific cytotoxic action | strong induction of IFN-γ production |
| WPWYIWLGFIAGLIA [15mer-4] | increased | increased |  |  |  |
| GKYEQYIKWPWYIWL [15mer-2] | increased | increased |  |  |  |
